# Laboratory results: patent US12528777B2, “Quinazolinones derivatives for treatment of non-alcoholic fatty liver disease, preparation and use thereof” (Council of Scientific and Industrial Research, priority 2020, dated 2026)
# Tested on: ATGL
# Assay: Western blot of ATGL level in HepG2 cells
# Format: cell-based
# Design: key to Increase in ATGL level: + = slight or in insignificant; ++ = Moderate; +++ and ++++ = active; +++ and ++++ = active; +++++ = very active
# Settings: HepG2 cells, western blot, score
# Method: To select the compounds capable of inhibiting the ubiquitination of ATGL by COP1 by targeting the VP motif, confocal microscopy was performed with the provided molecules. If the compound was effective in inhibiting the interaction, there would be a reduction in the number of fat droplets in the cells after treatment. […] With this rationale in mind, HepG2 cells were induced to accumulate lipid droplets after treatment with 250 µM of oleate and 10 μM of the specific compounds were added. The potential of the compounds to bring about a reduction in the number of fat droplets was then checked by comparison with oleate induced cells by counting number of droplets of approximately 20 cells from each treatment and calculating the average number of lipid droplets of each cell. The selected compounds were then subjected to dose dependent treatments and the ones which could maintain its potency to reduce fat droplets at lower doses were then selected for western blot analysis. The compound which could reduce the number of fat droplets in the cells are expected to raise the levels of ATGL since they are likely to deter COP1 from ubiquitinating ATGL. This increase will be visible only in the protein level and gene expression is likely to remain unchanged since ubiquitination is a […] modification. Thus, western blot was performed to check ATGL levels in the cells with the selected molecules.
# HepG2 cells were treated with the compounds 9, 10, 11, 17, 18, 23, 24, 115, 123, 127, 139,107, 171, 179, 73, 187, 211, 215, 219, 223, 232, 238, 241, 244, 258, 299, 308, and 333a, (10 μM for initial screening and 50 nM, 100 nM, 200 nM, 500 nM, 1 μM and 5 μM for dose dependent assays) for 24 hours. After removing media from the cells, the wells were washed with 1×PBS twice to remove any remnant media. Cells were then lysed in lysis buffer containing 50 mM Tris-HCl (pH 7.4), 100 mM NaCl, 1 mM EDTA, 1 mM EGTA, 1% Triton X-100 and protease inhibitor cocktail (Millipore, Billierica, MA, USA). Following centrifugation at 20,000 g for 20 minutes, the protein solution was extracted from the cells. Protein was estimated using Bradford assay. Bradford's reagent (BioRad) was diluted in 1:4 ratio in double distilled water. 2 μl of protein sample was added to 100 μl of the reagent and absorbance was measured at 595 nm. […] of protein was diluted in lysis buffer. 1× loading buffer diluted from 5× stock containing 250 mM Tris-HCl (pH 6.8), 10% SDS, 50% glycerol, 0.1% bromophenol Blue and 10% β-mercaptoethanol was added. The protein samples were then heated at 95° C. for 10 minutes, cooled and centrifuged at 12,000 g for 2 minutes prior to loading.
# For western blotting, the proteins were resolved in 10% SDS PAGE (discontinuous buffer system). 1× running buffer containing SDS, Tris Base and Glycine was used to run the gel at 80V for approximately 2 hours. Transfer was done using PVDF membrane (Millipore) having pore size of 0.45 μm. 1× transfer buffer containing Tris-Base, Glycine and 20% methanol was used for wet transfer. Transfer was done at 90V for 3 hours. Following transfer, the PVDF membrane containing the proteins were washed in 1×PBST comprising of 1×PBS and 1% Tween 20 (Sigma Aldrich). The membrane was then incubated for 1 hour at room temperature in 5% skim milk powder to block the non-specific sites. Following multiple washes with 1×PBST to wash away any remaining blocking buffer, the required primary antibody (COP1 [Bethyl Laboraties], ATGL [Cell Signalling Technology] or Actin[Cell Signalling Technology]) prepared with 1×PBST, 1% Bovine Serum Albumin and 0.04% Sodium Azide was added to the membrane and incubated overnight at 4° C. The next day, the membrane was again washed multiple times with 1×PBST to remove any unbound primary antibody. The membrane was then incubated with goat anti-rabbit secondary antibody (Genei) for 1 hour at room temperature and washed again for multiple times with 1×PBST. […]
row,SMILES,Increase in ATGL level
1,"COCCn1cnc2ccc(NC(=O)Nc3cccc(CNC(C)=O)c3)cc2c1=O [Compound 25, N-(3-(3-(3-(2-methoxyethyl)-4-oxo-3,4-dihydroquinazolin-6-yl)ureido)benzyl)acetamide]",+
2,"COCCn1cnc2ccc(NC(=O)Nc3ccc(C(F)(F)F)cc3)cc2c1=O [Compound 38, 1-(3-(2-methoxyethyl)-4-oxo-3,4-dihydroquinazolin-6-yl)-3-(4-(trifluoromethyl)phenyl)urea]",++
3,"COCCn1cnc2ccc(NC(=O)Nc3ccccc3C(F)(F)F)cc2c1=O [Compound 39, 1-(3-(2-methoxyethyl)-4-oxo-3,4-dihydroquinazolin-6-yl)-3-(2-(trifluoromethyl)phenyl)urea]",++
4,"COCCn1cnc2ccc(NC(=O)Nc3cccc(C(C)=O)c3)c(-c3ccc(F)cc3)c2c1=O [Compound 47, 1-(3-acetylphenyl)-3-(5-(4-fluorophenyl)-3-(2-methoxyethyl)-4-oxo-3,4-dihydroquinazolin-6-yl)urea]",+++
5,"COCCn1cnc2ccc(NC(=O)Nc3cccc(C(C)=O)c3)c(C3=CCN(C(=O)OC(C)(C)C)CC3)c2c1=O [Compound 59, tert-butyl 4-(6-(3-(3-acetylphenyl)ureido)-3-(2-methoxyethyl)-4-oxo-3,4-dihydroquinazolin-5-yl)-5,6-dihydropyridine-1 (2H)-carboxylate]",+
6,"COCCn1cnc2ccc(NC(=O)Nc3cccc(C(C)=O)c3)c(C3=CCNCC3)c2c1=O [Compound 60, 1-(3-acetylphenyl)-3-(3-(2-methoxyethyl)-4-oxo-5-(1,2,3,6-tetrahydropyridin-4-yl)-3,4-dihydroquinazolin-6-yl)urea]",+
7,"COCCn1cnc2ccc(NC(=O)Nc3cccc(C(C)=O)c3)c(C3CCN(C(=O)OC(C)(C)C)CC3)c2c1=O [Compound 61, tert-butyl 4-(6-(3-(3-acetylphenyl)ureido)-3-(2-methoxyethyl)-4-oxo-3,4-dihydroquinazolin-5-yl)piperidine-1-carboxylate]",+
8,"COCCn1cnc2ccc(NC(=O)Nc3cccc(C(C)=O)c3)c(C3CCNCC3)c2c1=O [Compound 62, 1-(3-acetylphenyl)-3-(3-(2-methoxyethyl)-4-oxo-5-(piperidin-4-yl)-3,4-dihydroquinazolin-6-yl)urea]",+++
9,"COCCn1cnc2ccc(NC(=O)Nc3cccc(C(C)=O)c3)c(-c3ccc(OC)cc3)c2c1=O [Compound 64, 1-(3-acetylphenyl)-3-(3-(2-methoxyethyl)-5-(4-methoxyphenyl)-4-oxo-3,4-dihydroquinazolin-6-yl)urea]",+
10,"COCCn1cnc2ccc(NC(=O)Nc3cccc(C(C)=O)c3)c(-c3ccc(C(F)(F)F)cc3)c2c1=O [Compound 66, 1-(3-acetylphenyl)-3-(3-(2-methoxyethyl)-4-oxo-5-(4-(trifluoromethyl)phenyl)-3,4-dihydroquinazolin-6-yl)urea]",++
11,"COc1ccccc1-n1cnc2ccc(NC(=O)Nc3cccc(C(C)=O)c3)cc2c1=O [Compound 131, 1-(3-acetylphenyl)-3-(3-(2-methoxyphenyl)-4-oxo-3,4-dihydroquinazolin-6-yl)urea]",+
12,"CC(=O)c1cccc(NC(=O)Nc2ccc3ncn(CCOC(C)C)c(=O)c3c2)c1 [Compound 183, 1-(3-acetylphenyl)-3-(3-(2-isopropoxyethyl)-4-oxo-3,4-dihydroquinazolin-6-yl)urea]",+++
13,"CC(=O)c1cccc(NC(=O)Nc2ccc3ncn(C4CCCCC4)c(=O)c3c2)c1 [Compound 187, 1-(3-acetylphenyl)-3-(3-cyclohexyl-4-oxo-3,4-dihydroquinazolin-6-yl)urea]",+++
14,"COCCn1c(CN2CCCC2)nc2ccc(NC(=O)Nc3cccc(C(C)=O)c3)cc2c1=O [Compound 232, 1-(3-acetylphenyl)-3-(3-(2-methoxyethyl)-4-oxo-2-(pyrrolidin-1-ylmethyl)-3,4-dihydroquinazolin-6-yl)urea]",+++
15,"CC(=O)c1cccc(NC(=O)Nc2ccc3ncn(CC(=O)Nc4ccccc4Br)c(=O)c3c2)c1 [Compound 259, 2-(6-(3-(3-acetylphenyl)ureido)-4-oxoquinazolin-3 (4H)-yl)-N-(2-bromophenyl)acetamide]",+++
16,"CCC(COC)n1c(C)nc2ccc(NC(=O)Nc3cccc(C(C)=O)c3)cc2c1=O (stereo not drawn) [Compound 281, 1-(3-acetylphenyl)-3-(3-(1-methoxybutan-2-yl)-2-methyl-4-oxo-3,4-dihydroquinazolin-6-yl)ureae]",++
17,"COCC(C)n1c(C)nc2ccc(NC(=O)Nc3cccc(C(C)=O)c3)cc2c1=O (stereo not drawn) [Compound 285, 1-(3-acetylphenyl)-3-(3-(1-methoxypropan-2-yl)-2-methyl-4-oxo-3,4-dihydroquinazolin-6-yl)urea]",+
18,"CC(=O)c1cccc(NC(=O)Nc2ccc3ncn(N4CCOCC4)c(=O)c3c2)c1 [Compound 340, 1-(3-acetylphenyl)-3-(3-morpholino-4-oxo-3,4-dihydroquinazolin-6-yl)urea]",+
19,"COCCn1c(C)nc2ccc(NC(=O)Nc3cccc(C(C)=O)c3)c(Br)c2c1=O [Compound 345, 1-(3-acetylphenyl)-3-(5-bromo-3-(2-methoxyethyl)-2-methyl-4-oxo-3,4-dihydroquinazolin-6-yl)urea]",+

# Same assay, conditions: fold increase of ATGL by densitometry, as % of 1.6 fold maximum with siCOP1; doses 10-5000 nM; read-out: EC50 (in-vitro)
row,SMILES,EC50 [µM]
1,"COCCn1c(C2CCCC2)nc2ccc(NC(=O)Nc3cccc(C(C)=O)c3)cc2c1=O [Compound 127, 1-(3-acetylphenyl)-3-(2-cyclopentyl-3-(2-methoxyethyl)-4-oxo-3,4-dihydroquinazolin-6-yl)urea]",0.0108
2,"COCCn1c(-c2cnccn2)nc2ccc(NC(=O)Nc3cccc(C(C)=O)c3)cc2c1=O [Compound 223, 1-(3-acetylphenyl)-3-(3-(2-methoxyethyl)-4-oxo-2-(pyrazin-2-yl)-3,4-dihydroquinazolin-6-yl)urea]",0.0703
3,"COCCn1c(CN2CCCC2)nc2ccc(NC(=O)Nc3cccc(C(C)=O)c3)cc2c1=O [Compound 232, 1-(3-acetylphenyl)-3-(3-(2-methoxyethyl)-4-oxo-2-(pyrrolidin-1-ylmethyl)-3,4-dihydroquinazolin-6-yl)urea]",0.433
4,"COCCn1c(C2CCN(C(=O)OC(C)(C)C)CC2)nc2ccc(NC(=O)Nc3cccc(C(C)=O)c3)cc2c1=O [Compound 299, tert-butyl 4-(6-(3-(3-acetylphenyl)ureido)-3-(2-methoxyethyl)-4-oxo-3,4-dihydroquinazolin-2-yl)piperidine-1-carboxylate]",0.29

# Same assay, conditions: western blot, 24 hours, 10 μM screening or 50 nM-5 μM dose dependent
row,SMILES,ATGL level in HepG2 cells
1,"COCCn1c(C2CCCC2)nc2ccc(NC(=O)Nc3cccc(C(C)=O)c3)cc2c1=O [Compound 127, 1-(3-acetylphenyl)-3-(2-cyclopentyl-3-(2-methoxyethyl)-4-oxo-3,4-dihydroquinazolin-6-yl)urea]",increased ATGL level
2,"COCCn1c(-c2cnccn2)nc2ccc(NC(=O)Nc3cccc(C(C)=O)c3)cc2c1=O [Compound 223, 1-(3-acetylphenyl)-3-(3-(2-methoxyethyl)-4-oxo-2-(pyrazin-2-yl)-3,4-dihydroquinazolin-6-yl)urea]",increased ATGL level
3,"COCCn1c(CN2CCCC2)nc2ccc(NC(=O)Nc3cccc(C(C)=O)c3)cc2c1=O [Compound 232, 1-(3-acetylphenyl)-3-(3-(2-methoxyethyl)-4-oxo-2-(pyrrolidin-1-ylmethyl)-3,4-dihydroquinazolin-6-yl)urea]",increased ATGL level
4,"COCCn1c(CN2CCN(C)CC2)nc2ccc(NC(=O)Nc3cccc(C(C)=O)c3)cc2c1=O [Compound 244, 1-(3-acetylphenyl)-3-(3-(2-methoxyethyl)-2-((4-methylpiperazin-1-yl)methyl)-4-oxo-3,4-dihydroquinazolin-6-yl)urea]",increased ATGL level
5,"COCCn1c(C2CCN(C(=O)OC(C)(C)C)CC2)nc2ccc(NC(=O)Nc3cccc(C(C)=O)c3)cc2c1=O [Compound 299, tert-butyl 4-(6-(3-(3-acetylphenyl)ureido)-3-(2-methoxyethyl)-4-oxo-3,4-dihydroquinazolin-2-yl)piperidine-1-carboxylate]",increased ATGL level
6,"COCCn1cnc2ccc(NC(=O)N(O)c3cccc(C(C)=O)c3)cc2c1=O [Compound 308, 1-(3-acetylphenyl)-1-hydroxy-3-(3-(2-methoxyethyl)-4-oxo-3,4-dihydroquinazolin-6-yl)urea]",increased ATGL level
7,"COCCn1c(C(=O)N2CCN(C)CC2)nc2ccc(NC(=O)Nc3cccc(C(C)=O)c3)cc2c1=O [Compound 333a, 1-(3-acetylphenyl)-3-(3-(2-methoxyethyl)-2-(4-methylpiperazine-1-carbonyl)-4-oxo-3,4-dihydroquinazolin-6-yl)urea]",increased ATGL level
